From paper PMC12990037, “Discovery of Two Structurally Distinct Classes of Inhibitors Targeting the Nuclease MUS81 and Enhancing Efficacy of Chemotherapy in Cancer Cells” (Journal of Medicinal Chemistry, 2026)

Key:
MUS81–EME1 = biological target: T1, MUS81–EME1 (Homo sapiens, UniProt Q96NY9); experiment: Gel-based in vitro nuclease assay: cleavage of 3′flap DNA by purified MUS81–EME1; type: biochemical
T1 construct: The MUS81–EME1 full-length expression plasmid was obtained from Stephen C; West; made in house; host or cells: Escherichia coli
T1 sequence (Q96NY9 1-551): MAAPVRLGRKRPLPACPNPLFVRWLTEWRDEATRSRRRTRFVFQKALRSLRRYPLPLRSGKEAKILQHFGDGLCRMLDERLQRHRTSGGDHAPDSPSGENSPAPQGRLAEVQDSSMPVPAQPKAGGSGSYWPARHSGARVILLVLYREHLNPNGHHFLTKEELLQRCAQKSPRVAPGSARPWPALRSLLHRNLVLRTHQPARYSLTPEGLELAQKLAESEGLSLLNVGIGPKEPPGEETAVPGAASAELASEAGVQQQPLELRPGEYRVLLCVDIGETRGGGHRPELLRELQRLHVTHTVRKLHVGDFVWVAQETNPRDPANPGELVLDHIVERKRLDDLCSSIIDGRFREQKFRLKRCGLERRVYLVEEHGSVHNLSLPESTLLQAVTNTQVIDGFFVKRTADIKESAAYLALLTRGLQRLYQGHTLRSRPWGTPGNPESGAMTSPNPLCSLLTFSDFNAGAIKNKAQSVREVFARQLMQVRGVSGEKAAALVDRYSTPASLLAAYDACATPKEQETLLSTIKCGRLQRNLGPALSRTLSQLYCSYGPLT
T1 sequence (Q96AY2 1-570 partner): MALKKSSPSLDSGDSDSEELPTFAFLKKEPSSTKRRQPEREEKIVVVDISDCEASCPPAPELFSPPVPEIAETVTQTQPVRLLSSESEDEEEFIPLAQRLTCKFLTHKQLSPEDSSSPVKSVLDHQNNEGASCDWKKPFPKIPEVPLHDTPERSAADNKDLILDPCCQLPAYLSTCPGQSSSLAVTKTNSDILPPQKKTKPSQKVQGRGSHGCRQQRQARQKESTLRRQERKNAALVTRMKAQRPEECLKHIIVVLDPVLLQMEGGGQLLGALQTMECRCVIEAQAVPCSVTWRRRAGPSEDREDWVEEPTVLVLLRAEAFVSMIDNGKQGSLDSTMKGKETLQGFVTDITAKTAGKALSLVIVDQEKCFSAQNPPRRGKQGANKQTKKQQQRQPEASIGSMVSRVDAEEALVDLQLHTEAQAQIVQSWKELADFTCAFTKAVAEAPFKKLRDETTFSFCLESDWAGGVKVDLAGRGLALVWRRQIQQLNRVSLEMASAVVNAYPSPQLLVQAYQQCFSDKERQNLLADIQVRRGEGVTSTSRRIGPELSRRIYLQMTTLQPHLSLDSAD
Experimental: To identify the small-molecule inhibitors of MUS81, we used two complementary screening approaches. The first involved a structure-based virtual screening, where over 140,000 small molecules were docked into the active site of MUS81 using AutoDock Vina software. […] The cleavage by purified MUS81-EME1 was monitored by gel electrophoresis, and the compound activity was quantified by measuring the reduction in cleavage product intensity.
Nuclease assays were performed in reaction buffer containing 50 mM Tris pH 7.5, 10 mM MgCl2, 1 mM DTT, 85 mM KCl, and 20% glycerol. Purified MUS81–EME1 (1 nM) was preincubated in 9 μL reaction with indicated concentrations of inhibitors for 15 min at room temperature, followed by the addition of 3 nM of a 3′flap DNA substrate (listed in Supplementary Table 9) and a further incubation for 15 min at 37 °C. The final concentration of DMSO in the reactions was 2%. The reactions were stopped by the addition of 0.1% SDS and 500 μg/mL of proteinase K, followed by incubation for 5 min at 37 °C. […] The fluorescent DNA was visualized using a FLA-9000 (Fujifilm). Bands corresponding to cleaved substrates were selected for quantification using the MultiGauge 3.2 software. Final data represent integrated density of these bands with background subtraction. Fitting of the data with sigmoid curves was performed in OriginPro (OriginLab).

CAL51 WT cells = experiment: Long-term cell survival assay (retreatment twice a week); type: cell-based; conditions: 1–3 μM, treated twice a week for almost 3 weeks
Experimental: To evaluate the long-term effects of the inhibitors on the cellular viability, we treated cells twice a week for almost 3 weeks with low doses of MU262 and MU876.
CAL51 WT cells were treated with DMSO, MU262 = 18, MU876 = 32, nontargeting siRNA, or siRNA targeting MUS81. Cells were trypsinized, counted, and replated twice a week and retreated with inhibitors or siRNA with every passage. The cell number was plotted at each time point. Data were plotted in Graphpad Prism (GraphPad Software) and a 2-way ANOVA test was used to assess significance.

[1] = biological target: T2, MUS81–EME1 binding to 3′ flap DNA substrate (Homo sapiens, UniProt Q96NY9); experiment: Electrophoretic mobility shift assay (EMSA); conditions: MUS81–EME1 160 nM, no MgCl2
T2 construct: The MUS81–EME1 full-length expression plasmid was obtained from Stephen C; West; made in house; host or cells: Escherichia coli
T2 sequence (Q96NY9 1-551): T1 sequence (Q96NY9 1-551)
T2 sequence (Q96AY2 1-570 partner): T1 sequence (Q96AY2 1-570 partner)
Experimental: (A,B) Purified MUS81–EME1 (160 nM) was incubated with increasing concentrations of MU262, MU876, or their respective control analogues, followed by the addition of 3 nM fluorescently labeled 3′ flap DNA substrate. MgCl2 was omitted from the reaction buffer to prevent substrate cleavage. The reaction products were resolved on a native PAGE gel. The lower band represents a free DNA substrate, while the upper smear corresponds to the MUS81–DNA complex. n = 3.
Purified MUS81–EME1 (160 nM) was incubated in a modified assay buffer without MgCl2 (50 mM Tris–HCl pH 7.4, 150 mM NaCl, and 0.05% Tween-20) with 15 nM of a 3′flap DNA substrate (listed in Supplementary Table 5) in the absence or presence of selected inhibitors at RT for 10 min, followed by an incubation at 25 °C for 10 min. The reaction was stopped on ice and products were resolved using native PAGE (7.5% acrylamide gel in 0.5% TBE) at 4 °C for 50 min (6.5 V/cm). Gel images were captured using a FLA-9000 (Fujifilm) and Typhoon (Amersham) scanners and quantified with Multi Gauge V3.2 software (Fujifilm).

## CCc1nn2c(O)c(-c3nc4ccccc4[nH]3)nnc2c1-c1ccc(F)cc1 [Compound 18, 3-(1H-Benzo[d]imidazole-2-yl)-7-ethyl-8-(4-fluorophenyl)pyrazolo[5,1-c][1,2,4]triazin-4-ol]
MUS81–EME1; Table 1, in vitro
  IC50: < 1 µM
MUS81–EME1; text and figures, MUS81–EME1 1 nM, 3 nM 3′ flap DNA
  IC50: 0.87 µM
CAL51 WT cells
  long-term viability: significant reduction in viability
[1]
  effect on MUS81–EME1 binding to 3′ flap DNA (EMSA): neither MU262 nor its inactive analogue MU1066 disrupted the MUS81–DNA interaction
